According to ChEMBL document CHEMBL4828718, “Synthesis and Antifungal Activity Evaluation of Phloeodictine Analogues” (J Nat Prod, 2021):
≈ marks a conversion by molar mass, not a printed value. Calls of active or inactive are those of the source. The calls are words filed in the database; no cut-off is given here.

Key:
Nakaseomyces glabratus [1] = experiment: Fungicidal activity against Candida glabrata ATCC 90030 assessed as fungal growth inhibition incubated for 18 to 24 hrs by alamar blue assay; format: functional
Vero = experiment: Cytotoxicity against African green monkey Vero cells assessed as reduction in cell viability incubated for 48 hrs by neutral red dye based assay; set-up: species or system Chlorocebus sabaeus
Nakaseomyces glabratus [2] = experiment: Antifungal activity against Candida glabrata ATCC 90030 assessed as fungal growth inhibition incubated for 18 to 24 hrs by alamar blue assay; format: functional
Aspergillus fumigatus [3] = experiment: Fungicidal activity against Aspergillus fumigatus ATCC 90906 assessed as fungal growth inhibition incubated for 72 hrs by alamar blue assay; format: functional
Candida albicans [4] = experiment: Antifungal activity against Candida albicans ATCC 90028 assessed as fungal growth inhibition incubated for 18 to 24 hrs by alamar blue assay; format: functional
Cryptococcus neoformans [5] = experiment: Fungicidal activity against Cryptococcus neoformans ATCC 90113 assessed as fungal growth inhibition incubated for 72 hrs by alamar blue assay; format: functional
Pichia kudriavzevii [6] = experiment: Antifungal activity against Candida krusei ATCC 6258 assessed as fungal growth inhibition incubated for 18 to 24 hrs by alamar blue assay; format: functional
Candida albicans [7] = experiment: Fungicidal activity against Candida albicans ATCC 90028 assessed as fungal growth inhibition incubated for 18 to 24 hrs by alamar blue assay; format: functional
Aspergillus fumigatus [8] = experiment: Antifungal activity against Aspergillus fumigatus ATCC 90906 assessed as fungal growth inhibition incubated for 72 hrs by alamar blue assay; format: functional
Pichia kudriavzevii [9] = experiment: Fungicidal activity against Candida krusei ATCC 6258 assessed as fungal growth inhibition incubated for 18 to 24 hrs by alamar blue assay; format: functional
Cryptococcus neoformans [10] = experiment: Antifungal activity against Cryptococcus neoformans ATCC 90113 assessed as fungal growth inhibition incubated for 72 hrs by alamar blue assay; format: functional
[11] = Nakaseomyces glabratus, ATCC 90030, time 18-24 hrs, read-out: MFC
[12] = Chlorocebus sabaeus, Vero, 48 h
[13] = Nakaseomyces glabratus, ATCC 90030, time 18-24 hrs, read-out: MIC
[14] = Aspergillus fumigatus, ATCC 90906, 72 h, read-out: MFC
[15] = Candida albicans, ATCC 90028, time 18-24 hrs, read-out: MIC
[16] = Cryptococcus neoformans, ATCC 90113, 72 h, read-out: MFC
[17] = Pichia kudriavzevii, ATCC 6258, time 18-24 hrs, read-out: MIC
[18] = Candida albicans, ATCC 90028, time 18-24 hrs, read-out: MFC
[19] = Aspergillus fumigatus, ATCC 90906, 72 h, read-out: MIC
[20] = Pichia kudriavzevii, ATCC 6258, time 18-24 hrs, read-out: MFC
[21] = Cryptococcus neoformans, ATCC 90113, 72 h, read-out: MIC

Row | MIC (Nakaseomyces glabratus [2]; [13]) [µM] | MIC (Candida albicans [4]; [15]) [µM] | MIC (Pichia kudriavzevii [6]; [17]) [µM] | MIC (Aspergillus fumigatus [8]; [19]) [µM] | MIC (Cryptococcus neoformans [10]; [21]) [µM] | Structure (SMILES) | MFC (Nakaseomyces glabratus [1]; [11]) [µM] | IC50 (Vero; [12]) [µM] | MFC (Aspergillus fumigatus [3]; [14]) [µM] | MFC (Cryptococcus neoformans [5]; [16]) [µM] | MFC (Candida albicans [7]; [18]) [µM] | MFC (Pichia kudriavzevii [9]; [20]) [µM] | further results
1 | 12 | 12 | 7.5 | 20 | 3.8 | CCCCCCCCCCCCCCC1(O)C(C)=C(C)C2=[N+](CC(=O)NCCCN)CCCN21 (stereo not drawn) | 15 | > 45 | 30 | 3.8 | 18 | 12 | –
2 | 1.8 | 3.7 | 1.8 | 3 | 0.88 | CCCCCCCCCCCCCCC1(O)C(C)=C(C)C2=[N+](Cc3ccc(F)cc3F)CCCN21 (stereo not drawn) | 1.8 | 28 | 3.7 | 1.1 | 3.7 | 1.8 | –
3 | 3.4 | 5.4 | 2.8 | 6.8 | 1.3 | CCCCCCCCCCCCCCC1(O)C(C)=C(C)C2=[N+](Cc3cnnn3Cc3ccccc3)CCCN21 (stereo not drawn) | 4.7 | > 40 | 6.8 | 2 | 6.8 | 2.8 | –
4 | 5.1 | 7.4 | 5.1 | 8.8 | 12 | CCCCCCCCCCCCCCC1(O)C(C)=C(C)C2=[N+](CC(=O)c3cccs3)CCCN21 (stereo not drawn) | 5.1 | 27 | 8.8 | 12 | 7.4 | 5.1 | –
5 | 2 | 5.5 | 2 | 17 | 1 | CCCCCCCCCCCCCCC1(O)C(C)=C(C)C2=[N+](Cc3ccc(C(F)(F)F)cc3)CCCN21 (stereo not drawn) | 2 | > 42 | 19 | 3.5 | 7 | 2 | –
6 | 2.2 | 6.7 | 2.2 | 3.1 | 1.5 | CCCCCCCCCCCCCCC1(O)C(C)=C(C)C2=[N+](Cc3ccc(F)cc3)CCCN21 (stereo not drawn) | 2.2 | 33 | 3.1 | 1.5 | 6.7 | 2.2 | –
7 | 2.2 | 3.9 | 2.2 | 4.7 | 1.5 | CCCCCCCCCCCCCCC1(O)C(C)=C(C)C2=[N+](Cc3ccccc3)CCCN21 (stereo not drawn) | 2.2 | 25 | 4.7 | 1.5 | 3.9 | 2.2 | –
8 | – | – | – | – | 5.4 | CCCCCCCCCCCCCCC1(O)C(C)=C(C)C2=[N+](CC(=O)O)CCCN21 (stereo not drawn) | – | > 50 | – | 5.4 | – | – | MFC (Nakaseomyces glabratus [1]; time 18-24 hrs): inactive; MIC (Nakaseomyces glabratus [2]; time 18-24 hrs): inactive; MFC (Aspergillus fumigatus [3]): inactive; MIC (Candida albicans [4]; time 18-24 hrs): inactive; MIC (Pichia kudriavzevii [6]; time 18-24 hrs): inactive; MFC (Candida albicans [7]; time 18-24 hrs): inactive; MIC (Aspergillus fumigatus [8]): inactive; MFC (Pichia kudriavzevii [9]; time 18-24 hrs): inactive
9 | 5.2 | 7.5 | 3.8 | 7.5 | 1.8 | CCCCCCCCCCCCCCC1(O)C(C)=C(C)C2=[N+](CC(=O)NCCCC)CCCN21 (stereo not drawn) | 5.9 | 45 | 7.5 | 1.8 | 10 | 3.8 | –
10 | 0.65 (≈ 0.601 µg/mL) | 0.77 (≈ 0.712 µg/mL) | 1.3 (≈ 1.2 µg/mL) | 2.3 (≈ 2.13 µg/mL) | 0.65 (≈ 0.601 µg/mL) | C[C@@H]1[C@H](O)[C@@H](C)/C=C/C=C/C=C/C=C/C=C/C=C/C=C/[C@H](O[C@@H]2O[C@H](C)[C@@H](O)[C@H](N)[C@@H]2O)C[C@@H]2O[C@](O)(C[C@@H](O)C[C@@H](O)[C@H](O)CC[C@@H](O)C[C@@H](O)CC(=O)O[C@H]1C)C[C@H](O)[C@H]2C(=O)O [AMPHOTERICIN B] | 0.65 (≈ 0.601 µg/mL) | 6.8 | 4 (≈ 3.7 µg/mL) | 0.65 (≈ 0.601 µg/mL) | 0.97 (≈ 0.896 µg/mL) | 1.3 (≈ 1.2 µg/mL) | –
11 | 1.7 | 5.2 | 2.1 | 4.4 | 0.21 | CCCCCCCCCCCCCCC1(O)C=CC2=[N+](C)CCCN21 (stereo not drawn) | 1.7 | 17 | 4.4 | 0.21 | 5.2 | 2.1 | –
12 | 6.9 (≈ 2.5 µg/mL) | 12 (≈ 4.35 µg/mL) | 6.9 (≈ 2.5 µg/mL) | 21 (≈ 7.62 µg/mL) | 3.3 (≈ 1.2 µg/mL) | CCCCCCCCCCCCCCc1c(C)c(C)cn1CCCNC | 6.9 (≈ 2.5 µg/mL) | 35 | 23 (≈ 8.34 µg/mL) | 6.9 (≈ 2.5 µg/mL) | 12 (≈ 4.35 µg/mL) | 6.9 (≈ 2.5 µg/mL) | –
13 | 6 | 10 | 3.5 | 6 | 1 | CCCCCCCCCCCCCCC1(O)C(C)=C(C)C2=[N+](CC#N)CCCN21 (stereo not drawn) | 8.7 | > 52 | 6 | 1 | 10 | 4.4 | –
14 | 3.5 | 3.5 | 2.5 | 5.2 | 1 | C=CC[N+]1=C2C(C)=C(C)C(O)(CCCCCCCCCCCCCC)N2CCC1 (stereo not drawn) | 5.2 | 32 | 17 | 4.1 | 4.3 | 2.5 | –
15 | – | – | – | – | 3.9 | CCCCCCCCCCCCCCC1(O)C(C)=C(C)C2=[N+](Cc3ccc4ccccc4c3)CCCN21 (stereo not drawn) | – | 42 | – | 12 | – | – | MFC (Nakaseomyces glabratus [1]; time 18-24 hrs): inactive; MIC (Nakaseomyces glabratus [2]; time 18-24 hrs): inactive; MFC (Aspergillus fumigatus [3]): inactive; MIC (Candida albicans [4]; time 18-24 hrs): inactive; MIC (Pichia kudriavzevii [6]; time 18-24 hrs): inactive; MFC (Candida albicans [7]; time 18-24 hrs): inactive; MIC (Aspergillus fumigatus [8]): inactive; MFC (Pichia kudriavzevii [9]; time 18-24 hrs): inactive
16 | 2.1 | 3.7 | 2.1 | 4.4 | 3.7 | CCCCCCCCCCCCCCC1(O)C(C)=C(C)C2=[N+](Cc3ccc(Cl)cc3)CCCN21 (stereo not drawn) | 2.1 | 42 | 4.4 | 3.7 | 3.7 | 2.1 | –
17 | – | – | – | – | – | CCCCCCCCCCCCCCC1(O)C(C)=C(C)C2=[N+](Cc3ccccc3)CCCN21.[Cl-] (stereo not drawn) | – | – | – | – | – | – | MFC (Nakaseomyces glabratus [1]; time 18-24 hrs): 4.3 µM; IC50 (Vero; vero): 36 µM; MIC (Nakaseomyces glabratus [2]; time 18-24 hrs): 4.3 µM; MFC (Aspergillus fumigatus [3]): 5.9 µM; MIC (Candida albicans [4]; time 18-24 hrs): 6.7 µM; MFC (Cryptococcus neoformans [5]): 2 µM; MIC (Pichia kudriavzevii [6]; time 18-24 hrs): 4.3 µM; MFC (Candida albicans [7]; time 18-24 hrs): 6.7 µM; MIC (Aspergillus fumigatus [8]): 5.9 µM; MFC (Pichia kudriavzevii [9]; time 18-24 hrs): 4.3 µM; MIC (Cryptococcus neoformans [10]): 2 µM
18 | 7.6 | 14 | 5 | 10 | 3.8 | CCCCCCCCCCCCCCC1(O)C(C)=C(C)C2=[N+](CC(=O)NCCCNC(=O)OC(C)(C)C)CCCN21 (stereo not drawn) | 14 | > 38 | 15 | 3.8 | 14 | 5 | –
19 | 4.9 | 18 | 6.2 | – | 3.7 | CCCCCCCCCCCCCCC1(O)C(C)=C(C)C2=[N+](CC(=O)c3cccc(Cl)c3)CCCN21 (stereo not drawn) | 4.9 | 7.7 | – | 3.7 | 18 | 6.2 | MFC (Aspergillus fumigatus [3]): inactive; MIC (Aspergillus fumigatus [8]): inactive
20 | – | – | – | – | 3.7 | CCCCCCCCCCCCCCC1(O)C(C)=C(C)C2=[N+](CC(=O)NCCOCCOCCOCCNC(=O)CCCC[C@@H]3SC[C@@H]4NC(=O)N[C@@H]43)CCCN21 (stereo partly drawn) | – | > 28 | – | 4.5 | – | – | MFC (Nakaseomyces glabratus [1]; time 18-24 hrs): inactive; MIC (Nakaseomyces glabratus [2]; time 18-24 hrs): inactive; MFC (Aspergillus fumigatus [3]): inactive; MIC (Candida albicans [4]; time 18-24 hrs): inactive; MIC (Pichia kudriavzevii [6]; time 18-24 hrs): inactive; MFC (Candida albicans [7]; time 18-24 hrs): inactive; MIC (Aspergillus fumigatus [8]): inactive; MFC (Pichia kudriavzevii [9]; time 18-24 hrs): inactive
21 | 2.1 | 4.5 | 2.1 | 4.5 | 1.1 | CCCCCCCCCCCCCCC1(O)C(C)=C(C)C2=[N+](Cc3ccc(C#N)cc3)CCCN21 (stereo not drawn) | 2.1 | 29 | 4.5 | 1.1 | 4.5 | 2.1 | –
22 | 2 | 5.4 | 2 | 5.4 | 3.4 | CCCCCCCCCCCCCCC1(O)C(C)=C(C)C2=[N+](Cc3ccc(Br)cc3)CCCN21 (stereo not drawn) | 2 | 35 | 8.2 | 6 | 5.4 | 2 | –
23 | – | – | – | – | 2.4 | CCCCCCCCCCCCCCC1(O)C(C)=C(C)C2=[N+](C)c3ccccc3CN21 (stereo not drawn) | – | > 45 | – | 2.4 | – | – | MFC (Nakaseomyces glabratus [1]; time 18-24 hrs): inactive; MIC (Nakaseomyces glabratus [2]; time 18-24 hrs): inactive; MFC (Aspergillus fumigatus [3]): inactive; MIC (Candida albicans [4]; time 18-24 hrs): inactive; MIC (Pichia kudriavzevii [6]; time 18-24 hrs): inactive; MFC (Candida albicans [7]; time 18-24 hrs): inactive; MIC (Aspergillus fumigatus [8]): inactive; MFC (Pichia kudriavzevii [9]; time 18-24 hrs): inactive
